According to the supplement of paper PMC8617591:

How the values were obtained:
[1] = tested on: Mycobacterium tuberculosis Erdman (autoluminescent); assay: total FIC90 (Loewe) at 90% inhibition, three-drug combination (log2); higher = more antagonistic
Procedure: (§1)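 DiaMOND equipotent three-drug combination dose responses (10 doses, 1.5- or 2-fold spacing, centred on IC90) against autoluminescent M. tuberculosis Erdman in 8 in vitro models. Read-out is OD600, or luminescence for the intracellular and dormancy models, normalised to untreated wells. Hill-fit Einf, AUC25 and GRinf are potency metrics; FIC50 and FIC90 are total Loewe fractional inhibitory concentrations as log2 (negative = synergy).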

[2] = tested on: Mycobacterium tuberculosis Erdman (autoluminescent); assay: GRinf, maximum normalised growth rate inhibition (three-drug combination) (unitless (-1 to 1)); higher = less effect (negative = killing)
Procedure: as §1

[3] = tested on: Mycobacterium tuberculosis Erdman (autoluminescent); assay: Einf, fitted maximum growth inhibition of three-drug combination (fraction); higher = stronger maximal inhibition
Procedure: as §1

[4] = tested on: Mycobacterium tuberculosis Erdman (autoluminescent); assay: total FIC50 (Loewe) at 50% inhibition, three-drug combination (log2); higher = more antagonistic
Procedure: as §1

[5] = tested on: Mycobacterium tuberculosis Erdman (autoluminescent); assay: AUC25, normalised area under dose response up to IC25 (three-drug combination) (fraction (0-1)); higher = more potent at low dose
Procedure: as §1

COc1nc2ccc(Br)cc2cc1[C@@H](c1ccccc1)[C@@](O)(CCN(C)C)c1cccc2ccccc12 [bedaquiline] + CC[C@@H](CO)NCCN[C@@H](CC)CO [ethambutol] + CO[C@H]1/C=C/O[C@@]2(C)Oc3c(C)c(O)c4c(O)c(c(/C=N/N5CCN(C6CCCC6)CC5)c(O)c4c3C2=O)NC(=O)/C(C)=C\C=C\[C@H](C)[C@H](O)[C@@H](C)[C@@H](O)[C@@H](C)[C@H](OC(C)=O)[C@@H]1C [rifapentine]
Settings | AUC25, [5] | Einf, [3] | GRinf, [2] | total FIC50, [4] | total FIC90, [1]
in vitro model: acidic pH 5.7, time point: constant (~7 days, model-specific) | 0.114 | 0.961 | -0.423 | -0.16 | –
in vitro model: acidic pH 5.7, time point: terminal (~4-5 doublings, model-specific) | 0.0469 | 0.98 | -0.179 | 0.232 | -0.455
in vitro model: intracellular J774, time point: constant = terminal | – | 0.947 | -0.165 | – | -1.85

Settings | AUC25, [5] | Einf, [3] | GRinf, [2] | total FIC50, [4] | total FIC90, [1]
in vitro model: butyrate, time point: constant (~7 days, model-specific) | 0.0669 | 0.935 | -0.0718 | 0.486 | –
in vitro model: butyrate, time point: terminal (~4-5 doublings, model-specific) | 0.0551 | 0.972 | -0.0579 | 0.432 | -0.198
in vitro model: cholesterol 0.05 mM, time point: constant (~7 days, model-specific) | 0.0736 | 0.7 | -0.229 | 0.896 | –
in vitro model: cholesterol 0.05 mM, time point: terminal (~4-5 doublings, model-specific) | 0.0689 | 0.896 | -0.175 | 1 | –
in vitro model: cholesterol-high 0.2 mM, time point: constant (~7 days, model-specific) | 0.0263 | 0.996 | -0.736 | 1.12 | –
in vitro model: cholesterol-high 0.2 mM, time point: terminal (~4-5 doublings, model-specific) | 0.0449 | 0.998 | -0.697 | 1.03 | 1.09
in vitro model: dormancy (butyrate + nitrate, low O2), time point: constant (~7 days, model-specific) | 0.125 | 0.891 | 0.428 | 1.06 | –
in vitro model: dormancy (butyrate + nitrate, low O2), time point: terminal (~4-5 doublings, model-specific) | 0.105 | 0.982 | -0.0507 | 0.39 | 0.33
in vitro model: standard 7H9 glycerol, time point: constant = terminal | 0.0577 | 0.931 | 0.00717 | 0.213 | –
in vitro model: valerate, time point: constant (~7 days, model-specific) | 0.0547 | 0.887 | -0.0669 | 0.793 | –
in vitro model: valerate, time point: terminal (~4-5 doublings, model-specific) | 0.0403 | 0.948 | -0.0709 | 0.823 | -0.0548

COc1nc2ccc(Br)cc2cc1[C@@H](c1ccccc1)[C@@](O)(CCN(C)C)c1cccc2ccccc12 [bedaquiline] + CC[C@@H](CO)NCCN[C@@H](CC)CO [ethambutol] + CO[C@H]1/C=C/O[C@@]2(C)Oc3c(C)c(O)c4c(O)c(c(/C=N/N5CCN(C)CC5)c(O)c4c3C2=O)NC(=O)/C(C)=C\C=C\[C@H](C)[C@H](O)[C@@H](C)[C@@H](O)[C@@H](C)[C@H](OC(C)=O)[C@@H]1C [rifampicin]
Settings | AUC25, [5] | Einf, [3] | GRinf, [2] | total FIC50, [4] | total FIC90, [1]
in vitro model: acidic pH 5.7, time point: constant (~7 days, model-specific) | 0.101 | 0.925 | -0.517 | 0.255 | –
in vitro model: acidic pH 5.7, time point: terminal (~4-5 doublings, model-specific) | 0.0469 | 0.975 | -0.16 | 0.433 | -0.353
in vitro model: intracellular J774, time point: constant = terminal | – | 0.946 | -0.188 | – | -2.17

Settings | AUC25, [5] | Einf, [3] | GRinf, [2] | total FIC50, [4] | total FIC90, [1]
in vitro model: butyrate, time point: constant (~7 days, model-specific) | 0.0854 | 0.947 | -0.116 | 0.298 | –
in vitro model: butyrate, time point: terminal (~4-5 doublings, model-specific) | 0.0653 | 0.977 | -0.0944 | 0.293 | -0.34
in vitro model: cholesterol 0.05 mM, time point: constant (~7 days, model-specific) | 0.0934 | 0.696 | -0.186 | 0.99 | –
in vitro model: cholesterol 0.05 mM, time point: terminal (~4-5 doublings, model-specific) | 0.0802 | 0.866 | -0.177 | 0.757 | –
in vitro model: cholesterol-high 0.2 mM, time point: constant (~7 days, model-specific) | 0.0442 | 0.972 | -0.609 | 0.869 | –
in vitro model: cholesterol-high 0.2 mM, time point: terminal (~4-5 doublings, model-specific) | 0.0471 | 0.999 | -0.732 | 0.649 | 0.577
in vitro model: dormancy (butyrate + nitrate, low O2), time point: constant (~7 days, model-specific) | 0.0847 | 0.848 | 0.506 | 0.302 | –
in vitro model: dormancy (butyrate + nitrate, low O2), time point: terminal (~4-5 doublings, model-specific) | 0.0367 | 0.985 | -0.0366 | 0.467 | -0.773
in vitro model: standard 7H9 glycerol, time point: constant = terminal | 0.0718 | 0.936 | -0.0564 | 0.162 | –
in vitro model: valerate, time point: constant (~7 days, model-specific) | 0.0696 | 0.904 | -0.043 | 0.575 | –
in vitro model: valerate, time point: terminal (~4-5 doublings, model-specific) | 0.0304 | 0.944 | -0.0659 | 0.707 | -0.531
